Source: patent publication US8735398B2 (Bristol-Myers Squibb Company, priority 2009, dated 2014)
Like-named read-outs stand apart in the source and are kept apart here.

Tested on: HCV 1b genotype
Assay: HCV replicon assay (HCV-neo replicon cells, wild-type)
Assay type: cell-based, Hepatitis C virus
Conditions: HCV 1b genotype replicon
Outline: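 HCV-neo replicon cells (wild-type) and replicon cells carrying NS5A resistance substitutions were treated with compounds; assay per O'Boyle et al. 2005, with luciferase-reporter read-out variants also used.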

[1] = Hepatitis C virus, class symbol, read-out: EC50 Range against HCV 1b
[2] = class symbols, read-out: EC50 Range against HCV 1b
[3] = Hepatitis C virus, read-out: EC50 1b
[4] = Hepatitis C virus, class symbols, read-out: EC50 Range against HCV 1b

Row | SMILES | EC50 [1] [nM] | further results
1 | O=C(Nc1ccc(-c2cc(-c3ccc(NC(=O)[C@@H]4C[C@@H](O)CN4C(=O)Cc4ccccc4)cc3)[nH]n2)cc1)[C@@H]1C[C@@H](O)CN1C(=O)Cc1ccccc1 [OL-28, (2S,4R,2′S,4′R)-N,N′-(1H-pyrazole-3,5-diyldi-4,1-phenylene)bis(4-hydroxy-1-(phenylacetyl)-2-pyrrolidinecarboxamide)] | 4.57 to 99 | –
2 | O=C(Nc1ccc(-c2cnc(-c3ccc(NC(=O)[C@@H]4CCCN4C(=O)Cc4cnc[nH]4)cc3)o2)cc1)[C@@H]1CCCN1C(=O)Cc1c[nH]cn1 [XY-14, (2S)-1-(1H-imidazol-4-ylacetyl)-N-(4-(2-(4-((((2S)-1-(1H-imidazol-5-ylacetyl)-2-pyrrolidinyl)carbonyl)amino)phenyl)-1,3-oxazol-5-yl)phenyl)-2-pyrrolidinecarboxamide (non-preferred name)] | – | EC50 [2]: 1000 to 10000 nM
3 | O=C(Nc1ccc(-c2cc(-c3ccc(NC(=O)[C@@H]4CCCN4C(=O)Cc4ccccc4)cc3)[nH]n2)cc1)[C@@H]1CCCN1C(=O)Cc1ccccc1 [OL-27, (2S,2′S)-N,N′-(1H-pyrazole-3,5-diyldi-4,1-phenylene)bis[1-(phenylacetyl)-2-pyrrolidinecarboxamide]] | 4.57 to 99 | EC50 [3]: 10 nM
4 | O=C(Nc1ccc(-c2cnc(-c3ccc(NC(=O)[C@@H]4CCCN4C(=O)c4ccccn4)cc3)o2)cc1)[C@@H]1CCCN1C(=O)c1ccccn1 [XY-6, (2S,2′S)-N,N′-(1,3-oxazole-2,5-diyldi-4,1-phenylene)bis(1-(2-pyridinylcarbonyl)-2-pyrrolidinecarboxamide)] | – | EC50 [4]: 1000 to 10000 nM
5 | Cc1nc(-c2ccc(NC(=O)[C@@H]3CCCN3C(=O)OCc3ccccc3)cc2)c(-c2ccc(NC(=O)[C@@H]3CCCN3C(=O)OCc3ccccc3)cc2)o1 [OL-5, (2S,2′S)-2,2′-[(2-methyl-4,5-oxazolediyl)bis(4,1-phenyleneiminocarbonyl)]bis-1-pyrrolidinecarboxylic acid, bis(phenylmethyl) ester] | 100 to 999 | –
6 | COc1cccc2c(C(=O)N3CCC[C@H]3C(=O)Nc3ccc(-c4ccc(-c5ccc(NC(=O)[C@@H]6CCCN6C(=O)c6nc(Cl)cc7c(OC)cccc67)cc5)o4)cc3)nc(Cl)cc12 [JG-60, (2S,2′S)-N,N′-(2,5-furandiyldi-4,1-phenylene)bis(1-((3-chloro-5-methoxy-1-isoquinolinyl)carbonyl)-2-pyrrolidinecarboxamide)] | 1000 to 10000 | –
7 | CN(C)CC(Oc1ccc(Cl)cc1)C(=O)N1CCC[C@H]1C(=O)Nc1ccc(-c2cnc(-c3ccc(NC(=O)[C@@H]4CCCN4C(=O)C(CN(C)C)Oc4ccc(Cl)cc4)cc3)o2)cc1 (stereo partly drawn) [Example D-19, (2S,2′S)-N,N′-(1,3-oxazole-2,5-diyldi-4,1-phenylene)bis(1-(2-(4-chlorophenoxy)-3-(dimethylamino)propanoyl)-2-pyrrolidinecarboxamide)] | 100 to 999 | –
8 | O=C(Nc1ccc(-c2cnc(-c3ccc(NC(=O)[C@@H]4CCCN4C(=O)C4(Cc5ccccc5)CCCN4)cc3)o2)cc1)[C@@H]1CCCN1C(=O)C1(Cc2ccccc2)CCCN1 (stereo partly drawn) [Example D-37, (2S,2′S)-N,N′-(1,3-oxazole-2,5-diyldi-4,1-phenylene)bis(1-((2-benzyl-2-pyrrolidinyl)carbonyl)-2-pyrrolidinecarboxamide)] | 1000 to 10000 | –
9 | CC(=O)N1CCC[C@H]1C(=O)Nc1ccc(-c2nc(C)sc2-c2ccc(NC(=O)[C@@H]3CCCN3C(C)=O)cc2)cc1 [Example D-43, (2S,2′S)-N,N′-((2-methyl-1,3-thiazole-4,5-diyl)di-4,1-phenylene)bis(1-acetyl-2-pyrrolidinecarboxamide)] | 100 to 999 | –
10 | O=C(Nc1ccc(-c2nnc(-c3ccc(NC(=O)[C@@H]4CCCN4C(=O)Cc4ccccc4)cc3)o2)cc1)[C@@H]1CCCN1C(=O)Cc1ccccc1 [MS-9, (2S,2′S)-N,N′-(4,4′-(1,3,4-oxadiazole-2,5-diyl)bis(4,1-phenylene))bis(1-(2-phenylacetyl)pyrrolidine-2-carboxamide)] | 100 to 999 | EC50 [3]: 150 nM
11 | O=C(Nc1ccc(-c2cnc(-c3ccc(NC(=O)[C@@H]4CCCN4C(=O)CN4C(=O)OC(c5ccccc5)C4=O)cc3)o2)cc1)[C@@H]1CCCN1C(=O)CN1C(=O)OC(c2ccccc2)C1=O (stereo partly drawn) [JR-22, (2S,2′S)-N,N′-(2,5-oxazolediyldi-4,1-phenylene)bis[1-[(2,4-dioxo-5-phenyl-3-oxazolidinyl)acetyl]-2-pyrrolidinecarboxamide]] | – | EC50 [4]: 1000 to 10000 nM; EC50 [3]: 1720 nM
12 | CC(C)(C)O[C@@H]1C[C@@H](C(=O)Nc2ccc(-c3cnc(-c4ccc(NC(=O)[C@@H]5C[C@@H](OC(C)(C)C)CN5C(=O)Cc5cccnc5)cc4)o3)cc2)N(C(=O)Cc2cccnc2)C1 [XY-62, (2S,4R,2′S,4′R)-N,N′-(1,3-oxazole-2,5-diyldi-4,1-phenylene)bis(4-tert-butoxy-1-(3-pyridinylacetyl)-2-pyrrolidinecarboxamide)] | – | EC50 [4]: 4.57 to 99 nM
13 | C[C@H](NC(=O)c1ccco1)C(=O)Nc1ccc(-c2nnc(-c3ccc(NC(=O)[C@H](C)NC(=O)c4ccco4)cc3)o2)cc1 [RK-21, N,N′-(1,3,4-oxadiazole-2,5-diylbis(4,1-phenyleneimino((2S)-1-oxo-1,2-propanediyl)))di(2-furamide)] | 1000 to 10000 | –
14 | Cn1nc(-c2ccc(NC(=O)[C@@H]3CCCN3C(=O)OCc3ccccc3)cc2)cc1-c1ccc(NC(=O)[C@@H]2CCCN2C(=O)OCc2ccccc2)cc1 [FY-3, dibenzyl (2S,2′S)-2,2′-((1-methyl-1H-pyrazole-3,5-diyl)bis(4,1-phenylenecarbamoyl))di(1-pyrrolidinecarboxylate)] | 100 to 999 | –
15 | COc1cccc(CC(=O)N2C[C@H](OC(C)(C)C)C[C@H]2C(=O)Nc2ccc(-c3cnc(-c4ccc(NC(=O)[C@@H]5C[C@@H](OC(C)(C)C)CN5C(=O)Cc5cccc(OC)c5)cc4)o3)cc2)c1 [XY-77, (2S,4R,2′S,4′R)-N,N′-(1,3-oxazole-2,5-diyldi-4,1-phenylene)bis(4-tert-butoxy-1-((3-methoxyphenyl)acetyl)-2-pyrrolidinecarboxamide)] | – | EC50 [4]: 100 to 999 nM
16 | O=C(Cc1ccccc1)NC1(C(=O)Nc2ccc(-c3cnc(-c4ccc(NC(=O)C5(NC(=O)Cc6ccccc6)CC5)cc4)o3)cc2)CC1 [JG-18, N,N′-(1,3-oxazole-2,5-diyldi-4,1-phenylene)bis(1-((phenylacetyl)amino)cyclopropanecarboxamide)] | 1000 to 10000 | –
17 | O=C(O)CCC(=O)N1CCC[C@H]1C(=O)Nc1ccc(-c2cnc(-c3ccc(NC(=O)[C@@H]4CCCN4C(=O)CCC(=O)O)cc3)o2)cc1 [XY-13, 4,4′-(1,3-oxazole-2,5-diylbis(4,1-phenylenecarbamoyl(2S)-2,1-pyrrolidinediyl))bis(4-oxobutanoic acid)] | – | EC50 [2]: 1000 to 10000 nM; EC50 (read-out: EC50 1b): 4540 nM
18 | O=C(Nc1ccc(-c2n[nH]nc2-c2ccc(NC(=O)[C@@H]3C[C@@H](O)CN3C(=O)Cc3ccccc3)cc2)cc1)[C@@H]1C[C@@H](O)CN1C(=O)Cc1ccccc1 [OL-21, (2S,4R,2′S,4′R)-N,N′-(1H-1,2,3-triazole-4,5-diyldi-4,1-phenylene)bis(4-hydroxy-1-(phenylacetyl)-2-pyrrolidinecarboxamide)] | 100 to 999 | –
19 | O=C(Nc1ccc(-c2cnc(-c3ccc(NC(=O)[C@@H]4CCCN4C(=O)c4sccc4Cl)cc3)o2)cc1)[C@@H]1CCCN1C(=O)c1sccc1Cl [XY-25, (2S,2′S)-N,N′-(1,3-oxazole-2,5-diyldi-4,1-phenylene)bis(1-((3-chloro-2-thienyl)carbonyl)-2-pyrrolidinecarboxamide)] | – | EC50 [4]: 1000 to 10000 nM
